Data reported in US20240158446A1, “CYCLIC COMPOUND HAVING SELECTIVE INHIBITORY ACTION ON KRAS OVER HRAS AND NRAS” (CHUGAI SEIYAKU KABUSHIKI KAISHA, priority 2021, published 2024).
Each block holds one compound with its values, some of them ahead of it.

Experiments:
[1] = biological target: GDP-bound HRAS wild-type protein (Homo sapiens, UniProt P01112); assay: Binding to HRAS by surface plasmon resonance (SPR), Single Cycle Kinetics; conditions: SPR; GDP-bound HRAS wild-type protein vs GDP-bound KRAS wild-type protein; KD ratio class
[2] = biological target: GDP-bound KRAS wild-type protein (Homo sapiens, UniProt P01116); assay: Binding to KRAS by surface plasmon resonance (SPR), Single Cycle Kinetics; conditions: SPR, Single Cycle Kinetics, 1:1 binding model; GDP-bound KRAS wild-type protein; read-out: KRAS KD
[3] = system: human lung cancer strain NCI-H441;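 note: cell proliferation inhibition after four days measured by CellTiter-Glo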
[4] = biological target: GDP-bound NRAS wild-type protein (Homo sapiens, UniProt P01111); assay: Binding to NRAS by surface plasmon resonance (SPR), Single Cycle Kinetics; conditions: SPR; GDP-bound NRAS wild-type protein vs GDP-bound KRAS wild-type protein; KD ratio class
Chain of GDP-bound NRAS wild-type protein (P01111 whole entry): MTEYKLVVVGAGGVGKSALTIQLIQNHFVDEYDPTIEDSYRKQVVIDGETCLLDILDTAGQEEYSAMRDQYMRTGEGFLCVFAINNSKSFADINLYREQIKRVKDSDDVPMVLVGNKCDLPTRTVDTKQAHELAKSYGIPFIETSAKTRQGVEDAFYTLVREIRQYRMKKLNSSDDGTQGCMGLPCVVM

Chain of GDP-bound HRAS wild-type protein (P01112 whole entry): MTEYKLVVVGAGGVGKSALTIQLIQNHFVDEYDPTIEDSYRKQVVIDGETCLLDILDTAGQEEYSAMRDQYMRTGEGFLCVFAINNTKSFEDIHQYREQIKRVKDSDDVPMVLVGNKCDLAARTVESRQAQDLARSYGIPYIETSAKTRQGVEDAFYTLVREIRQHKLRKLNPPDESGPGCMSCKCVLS
Chain of GDP-bound KRAS wild-type protein (P01116 whole entry): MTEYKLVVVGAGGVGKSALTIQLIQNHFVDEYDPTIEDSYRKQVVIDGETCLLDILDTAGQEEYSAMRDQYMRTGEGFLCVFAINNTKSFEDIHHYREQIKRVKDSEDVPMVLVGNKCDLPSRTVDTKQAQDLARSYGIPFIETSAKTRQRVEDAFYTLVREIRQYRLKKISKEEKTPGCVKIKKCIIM

Compound: CC[C@H](C)[C@@H]1NC(=O)[C@H](CC)N(C)C(=O)C[C@@H](C(=O)N2CCOCC2)N(C)C(=O)[C@H](C2CCCC2)N(C)C(=O)C2(CCC2)NC(=O)[C@@H]2CCCN2C(=O)[C@H](CCc2cc(F)c(C(F)(F)F)c(F)c2)NC(=O)CN(C)C(=O)[C@H](Cc2ccc(C(F)(F)F)cc2)N2C[C@H](C)CC[C@@H](C2=O)N(C)C(=O)CN(C)C1=O [PP1384]
- HRAS/KRAS (ratio of KD value for HRAS to KD value for KRAS) [1]: B (a compound having 3 or more and less than 10 is denoted as B)
- Kd [2]: 0.11 nM
- IC50 [3]: 13.5 nM
- NRAS/KRAS (ratio of KD value for NRAS to KD value for KRAS) [4]: A (a compound having 10 or more and less than 20 is denoted as A)

Compound: CC[C@H](C)[C@@H]1NC(=O)[C@H](CC2CCC2)N(C)C(=O)C[C@@H](C(=O)N(C)C)N(C)C(=O)[C@H](C2CCCC2)N(C)C(=O)C2(CCCC2)NC(=O)[C@@H]2CCCN2C(=O)[C@H](CCc2cc(F)c(C(F)(F)F)c(F)c2)NC(=O)CN(C)C(=O)[C@H](Cc2ccc(C(F)(F)F)cc2)N2C[C@H](C)CC[C@@H](C2=O)N(C)C(=O)CN(C)C1=O [PP1386]
- HRAS/KRAS (ratio of KD value for HRAS to KD value for KRAS) [1]: B (a compound having 3 or more and less than 10 is denoted as B)
- Kd [2]: 0.082 nM
- IC50 [3]: 4.2 nM
- NRAS/KRAS (ratio of KD value for NRAS to KD value for KRAS) [4]: B (a compound having 3 or more and less than 10 is denoted as B)

Compound: CCO[C@@H]1C[C@H]2C(=O)NC3(CCC3)C(=O)N(C)[C@@H](C3CCCC3)C(=O)N(C)[C@H](C(=O)N3CCCC3)CC(=O)N(C)[C@@H](CC3CCCC3)C(=O)N[C@@H]([C@@H](C)CC)C(=O)N(C)CC(=O)N(C)[C@H]3C/C=C\CCN(C3=O)[C@@H](Cc3ccc(F)cc3)C(=O)N(C)CC(=O)N[C@@H](CCc3ccc4sccc4c3)C(=O)N2C1 [PP1391]
- HRAS/KRAS (ratio of KD value for HRAS to KD value for KRAS) [1]: A (a compound having 10 or more and less than 20 is denoted as A)
- Kd [2]: 1.6 nM
- IC50 [3]: 271 nM
- NRAS/KRAS (ratio of KD value for NRAS to KD value for KRAS) [4]: A (a compound having 10 or more and less than 20 is denoted as A)

Compound: CCO[C@@H]1C[C@H]2C(=O)NC3(CCC3)C(=O)N(C)[C@@H](C3CCCC3)C(=O)N(C)[C@H](C(=O)N3CCOCC3)CC(=O)N(C)[C@@H](CC3CCCC3)C(=O)N[C@@H]([C@@H](C)CC)C(=O)N(C)CC(=O)N(C)[C@H]3C/C=C\CCN(C3=O)[C@@H](Cc3ccc(C(F)(F)F)cc3)C(=O)N(C)CC(=O)N[C@@H](CCc3cc(F)c(C(F)(F)F)c(F)c3)C(=O)N2C1 [PP1393]
- HRAS/KRAS (ratio of KD value for HRAS to KD value for KRAS) [1]: A (a compound having 10 or more and less than 20 is denoted as A)
- Kd [2]: 0.19 nM
- IC50 [3]: 18.2 nM
- NRAS/KRAS (ratio of KD value for NRAS to KD value for KRAS) [4]: A (a compound having 10 or more and less than 20 is denoted as A)

Compound: CCCOC[C@H]1C(=O)N[C@@H]([C@@H](C)CC)C(=O)N(C)CC(=O)N(C)[C@H]2C/C=C\CCN(C2=O)[C@@H](Cc2ccc(C(F)(F)F)cc2)C(=O)N(C)CC(=O)N[C@@H](CCc2cc(F)c(C(F)(F)F)c(F)c2)C(=O)N2C[C@H](OCC)C[C@H]2C(=O)NC2(CCC2)C(=O)N(C)[C@@H](C2CCCC2)C(=O)N(C)[C@H](C(=O)N(C)C)CC(=O)N1C [PP1395, (2S,8S,12R,14S,20S,23S,27S,30S,36S,38Z)-20-cyclopentyl-8-[2-[3,5-difluoro-4-(trifluoromethyl)phenyl]ethyl]-12-ethoxy-N,N,4,19,22,26,32,35-octamethyl-30-[(1S)-1-methylpropyl]-3,6,9,15,18,21,25,28,31,34,42-undecaoxo-27-(propoxymethyl)-2-[[4-(trifluoromethyl)phenyl]methyl]spiro[1,4,7,10,16,19,22,26,29,32,35-undecazatricyclo[34.5.1.0^10,14]dotetracont-38-ene-17,1′-cyclobutane]-23-carboxamide]
- HRAS/KRAS (ratio of KD value for HRAS to KD value for KRAS) [1]: B (a compound having 3 or more and less than 10 is denoted as B)
- Kd [2]: 0.063 nM
- IC50 [3]: 3.8 nM
- NRAS/KRAS (ratio of KD value for NRAS to KD value for KRAS) [4]: A (a compound having 10 or more and less than 20 is denoted as A)

Compound: CCCC[C@H]1C(=O)N[C@@H]([C@@H](C)CC)C(=O)N(C)CC(=O)N(C)[C@H]2C/C=C\CCN(C2=O)[C@@H](Cc2ccc(C(F)(F)F)cc2)C(=O)N(C)CC(=O)N[C@@H](CCc2cc(F)c(C(F)(F)F)c(F)c2)C(=O)N2C[C@H](OCC)C[C@H]2C(=O)NC2(CCC2)C(=O)N(C)[C@@H](C2CCCC2)C(=O)N(C)[C@H](C(=O)N2CCCC2)CC(=O)N1C [PP1396, (2S,8S,12R,14S,20S,23S,27S,30S,36S,38Z)-27-butyl-20-cyclopentyl-8-[2-[3,5-difluoro-4-(trifluoromethyl)phenyl]ethyl]-12-ethoxy-4,19,22,26,32,35-hexamethyl-30-[(1S)-1-methylpropyl]-23-(pyrrolidine-1-carbonyl)-2-[[4-(trifluoromethyl)phenyl]methyl]spiro[1,4,7,10,16,19,22,26,29,32,35-undecazatricyclo[34.5.1.0^10,14]dotetracont-38-ene-17,1′-cyclobutane]-3,6,9,15,18,21,25,28,31,34,42-undecone]
- HRAS/KRAS (ratio of KD value for HRAS to KD value for KRAS) [1]: A (a compound having 10 or more and less than 20 is denoted as A)
- Kd [2]: 0.14 nM
- IC50 [3]: 19.4 nM
- NRAS/KRAS (ratio of KD value for NRAS to KD value for KRAS) [4]: AA (a compound having 20 or more is denoted as AA)

Compound: CCCC[C@H]1C(=O)N[C@@H]([C@@H](C)CC)C(=O)N(C)CC(=O)N(C)[C@H]2C/C=C\CCN(C2=O)[C@@H](Cc2ccc(C(F)(F)F)cc2)C(=O)N(C)CC(=O)N[C@@H](CCc2cc(F)c(C(F)(F)F)c(F)c2)C(=O)N2C[C@H](OCC)C[C@H]2C(=O)NC2(CCCC2)C(=O)N(C)[C@@H](C2CCCC2)C(=O)N(C)[C@H](C(=O)N(C)C)CC(=O)N1C [PP1397, (2S,8S,12R,14S,20S,23S,27S,30S,36S,38Z)-27-butyl-20-cyclopentyl-8-[2-[3,5-difluoro-4-(trifluoromethyl)phenyl]ethyl]-12-ethoxy-N,N,4,19,22,26,32,35-octamethyl-30-[(1S)-1-methylpropyl]-3,6,9,15,18,21,25,28,31,34,42-undecaoxo-2-[[4-(trifluoromethyl)phenyl]methyl]spiro[1,4,7,10,16,19,22,26,29,32,35-undecazatricyclo[34.5.1.0^10,14]dotetracont-38-ene-17,1′-cyclopentane]-23-carboxamide]
- HRAS/KRAS (ratio of KD value for HRAS to KD value for KRAS) [1]: A (a compound having 10 or more and less than 20 is denoted as A)
- Kd [2]: 0.073 nM
- IC50 [3]: 3.7 nM
- NRAS/KRAS (ratio of KD value for NRAS to KD value for KRAS) [4]: A (a compound having 10 or more and less than 20 is denoted as A)

More lines, in order of falling Kd [2], values ahead:

- Kd [2]: 1.1 nM
- IC50 [3]: 305 nM
Compound: CCO[C@@H]1C[C@H]2C(=O)NC3(CCC3)C(=O)N(C)[C@@H](C3CCCC3)C(=O)N(C)[C@H](C(=O)N(C)C)CC(=O)N(C)[C@@H](CC3CCCC3)C(=O)N[C@@H]([C@@H](C)CC)C(=O)N(C)CC(=O)N(C)[C@H]3C/C=C\CCN(C3=O)[C@@H](Cc3ccc(F)cc3)C(=O)N(C)CC(=O)N[C@@H](CCc3ccc4sccc4c3)C(=O)N2C1 [PP1390]
- HRAS/KRAS (ratio of KD value for HRAS to KD value for KRAS) [1]: A (a compound having 10 or more and less than 20 is denoted as A)
- NRAS/KRAS (ratio of KD value for NRAS to KD value for KRAS) [4]: A (a compound having 10 or more and less than 20 is denoted as A)

- Kd [2]: 0.24 nM
- IC50 [3]: 25.1 nM
Compound: CCO[C@@H]1C[C@H]2C(=O)NC3(CCC3)C(=O)N(C)[C@@H](C3CCCC3)C(=O)N(C)[C@H](C(=O)N3CCOCC3)CC(=O)N(C)[C@@H](CC3CCCC3)C(=O)N[C@@H]([C@@H](C)CC)C(=O)N(C)CC(=O)N(C)[C@H]3C/C=C\CCN(C3=O)[C@@H](Cc3ccc(C)cc3)C(=O)N(C)CC(=O)N[C@@H](CCc3cc(F)c(C(F)(F)F)c(F)c3)C(=O)N2C1 [PP1394]
- HRAS/KRAS (ratio of KD value for HRAS to KD value for KRAS) [1]: A (a compound having 10 or more and less than 20 is denoted as A)
- NRAS/KRAS (ratio of KD value for NRAS to KD value for KRAS) [4]: AA (a compound having 20 or more is denoted as AA)

- Kd [2]: 0.047 nM
- IC50 [3]: 1.4 nM
Compound: CCCC[C@H]1C(=O)N[C@@H]([C@@H](C)CC)C(=O)N(C)CC(=O)N(C)[C@H]2C/C=C\CCN(C2=O)[C@@H](Cc2ccc(C(F)(F)F)cc2)C(=O)N(C)CC(=O)N[C@@H](CCc2cc(F)c(C(F)(F)F)c(F)c2)C(=O)N2C[C@H](OCC)C[C@H]2C(=O)NC2(CCC2)C(=O)N(C)[C@@H](C2CCCC2)C(=O)N(C)[C@H](C(=O)N(C)C)CC(=O)N1C [PP1392, (2S,8S,12R,14S,20S,23S,27S,30S,36S,38Z)-27-butyl-20-cyclopentyl-8-[2-[3,5-difluoro-4-(trifluoromethyl)phenyl]ethyl]-12-ethoxy-N,N,4,19,22,26,32,35-octamethyl-30-[(1S)-1-methylpropyl]-3,6,9,15,18,21,25,28,31,34,42-undecaoxo-2-[[4-(trifluoromethyl)phenyl]methyl]spiro[1,4,7,10,16,19,22,26,29,32,35-undecazatricyclo[34.5.1.0^10,14]dotetracont-38-ene-17,1′-cyclobutane]-23-carboxamide]
- HRAS/KRAS (ratio of KD value for HRAS to KD value for KRAS) [1]: A (a compound having 10 or more and less than 20 is denoted as A)
- NRAS/KRAS (ratio of KD value for NRAS to KD value for KRAS) [4]: A (a compound having 10 or more and less than 20 is denoted as A)
